From patent publication US4769250A, “Antracycline antineoplastic agents encapsulated in phospholipid vesicle particles and methods for using same for tumor therapy” (priority 1987, dated 1988)
pKd: −log10 of the molar value.

Assays:
[1] = toxicity determined by survival in tumor-bearing mice; format: in vivo
[2] = test system: P-1798 solid lymphosarcoma; assay: single dose chemotherapeutic efficacy, intradermal P-1798 solid lymphosarcoma; format: in vivo, mice; settings: 20 mg/kg single dose
Experimental: In the first investigation, groups of 10 mice received free daunorubicin or daunorubicin-vesicles in 20 mg/kg single doses at three or four days following tumor implantation. Tumors were measured using calipers and the survival over time of treated and control mice was recorded. Controls consisted of injections of a 5% dextrose in water solution at 2 ml/20 gm doses.
Representative results of these investigations are shown in FIG. 5 for treatment commencing on day 3 after tumor implantation. Typically, with tumor metastasis, mice with tumors die within 14-17 days. […] The median life span of mice injected with daunorubicin-vesicles was 21 days.

[3] = binding to distearoyl phosphatidylglycerol; read-out: binding constant; cited from earlier work
DNA = settings: binding to DNA; read-out: affinity for binding to DNA in a cell (converted); cited from earlier work
[4] = children highly susceptible (Mosijezuk et al.); cited from earlier work

Row | SMILES | toxicity induced deaths by dose ([1]; 10, 20 and 30 mg/kg) | mortality ([1]; mouse, in vivo, 30 mg/kg, read-out: toxicity induced deaths) [%] | inhibition of tumor growth vs untreated controls [2] | pKd [3] | Kd (DNA) [µM] | cardiotoxicity [4]
1 | COc1cccc2c1C(=O)c1c(O)c3c(c(O)c1C2=O)C[C@@](O)(C(C)=O)C[C@@H]3O[C@H]1C[C@H](N)[C@H](O)[C@H](C)O1 [daunorubicin] | toxicity induced deaths occurred only for the high dose unencapsulated daunorubicin (30 mg/kg) | 100 | significant inhibition of tumor growth | ~5.00 | ~0.5 | 
2 | COc1cccc2c1C(=O)c1c(O)c3c(c(O)c1C2=O)C[C@@](O)(C(=O)CO)C[C@@H]3O[C@H]1C[C@H](N)[C@H](O)[C@H](C)O1 [doxorubicin] |  |  |  |  |  | congestive heart failure
